In the NIST ThermoML archive (doi:10.1016/j.jct.2017.12.020):

Assays:
[1] = Liquid; for speed of sound: Frequency=2 MHz, Pulse-echo method; for mass density: Vibrating tube method
[2] = molar heat capacity at constant pressure; details: 101.33 kPa, Liquid, Small sample (50 mg) DSC

CCCCCCCCCCCC(=O)OC [methyl dodecanoate]
[1]
Details | mass density [kg/m3] | speed of sound [m/s]
293.15 K, 100 kPa | – | 1351.3
293.15 K, 101.33 kPa | 869.2 | –
293.15 K, 10000 kPa | – | 1400.9
293.15 K, 20000 kPa | – | 1445.1
293.15 K, 30000 kPa | – | 1486.4
293.15 K, 40000 kPa | – | 1526.9
293.15 K, 50000 kPa | – | 1563.8
293.15 K, 60000 kPa | – | 1600
293.15 K, 70000 kPa | – | 1628.6
293.15 K, 80000 kPa | – | 1660.5
293.15 K, 90000 kPa | – | 1690.9
303.15 K, 101.33 kPa | 861.4 | –
313.15 K, 100 kPa | – | 1276.4
313.15 K, 101.33 kPa | 853.8 | –
313.15 K, 10000 kPa | – | 1328
313.15 K, 20000 kPa | – | 1375.3
313.15 K, 30000 kPa | – | 1420
313.15 K, 40000 kPa | – | 1461.6
313.15 K, 50000 kPa | – | 1500.9
313.15 K, 60000 kPa | – | 1537
313.15 K, 70000 kPa | – | 1573.3
313.15 K, 80000 kPa | – | 1607.4
313.15 K, 90000 kPa | – | 1637.8
313.15 K, 100000 kPa | – | 1671.1
313.15 K, 120000 kPa | – | 1728.6
313.15 K, 140000 kPa | – | 1784.4
323.15 K, 101.33 kPa | 845.8 | –
333.15 K, 100 kPa | – | 1205.5
333.15 K, 101.33 kPa | 837.9 | –
333.15 K, 10000 kPa | – | 1259.6
333.15 K, 20000 kPa | – | 1311
333.15 K, 30000 kPa | – | 1357.5
333.15 K, 40000 kPa | – | 1401
333.15 K, 50000 kPa | – | 1441.3
333.15 K, 60000 kPa | – | 1480.9
333.15 K, 70000 kPa | – | 1515.7
333.15 K, 80000 kPa | – | 1550.8
333.15 K, 90000 kPa | – | 1585.9
333.15 K, 100000 kPa | – | 1621.9
333.15 K, 120000 kPa | – | 1682
333.15 K, 140000 kPa | – | 1739.2
333.15 K, 160000 kPa | – | 1791.8
333.15 K, 180000 kPa | – | 1843.5
333.15 K, 200000 kPa | – | 1893.2
343.15 K, 101.33 kPa | 830 | –
353.15 K, 100 kPa | – | 1133.5
353.15 K, 101.33 kPa | 822.2 | –
353.15 K, 10000 kPa | – | 1192.2
353.15 K, 20000 kPa | – | 1247.2
353.15 K, 30000 kPa | – | 1295.9
353.15 K, 40000 kPa | – | 1342.5
353.15 K, 50000 kPa | – | 1386.1
353.15 K, 60000 kPa | – | 1426.2
353.15 K, 70000 kPa | – | 1463.8
353.15 K, 80000 kPa | – | 1500.1
353.15 K, 90000 kPa | – | 1534.8
353.15 K, 100000 kPa | – | 1568.3
353.15 K, 120000 kPa | – | 1632.8
353.15 K, 140000 kPa | – | 1690.8
353.15 K, 160000 kPa | – | 1744.4
353.15 K, 180000 kPa | – | 1802.7
353.15 K, 200000 kPa | – | 1851.2

viscosity [mPa·s], [1]
Details | 293.15 K | 313.15 K | 333.15 K | 353.15 K
101.33 kPa, Capillary tube (Ostwald / Ubbelohde) method | 3.14 | 2.05 | 1.45 | 1.09
10000 kPa, quartz crystal resonator | 3.53 | 2.3 | 1.61 | 1.21
20000 kPa, quartz crystal resonator | 3.96 | 2.59 | 1.78 | 1.33
30000 kPa, quartz crystal resonator | 4.4 | 2.85 | 1.98 | 1.48
40000 kPa, quartz crystal resonator | 5 | 3.16 | 2.18 | 1.62
50000 kPa, quartz crystal resonator | 5.64 | 3.5 | 2.39 | 1.76
60000 kPa, quartz crystal resonator | 6.21 | 3.85 | 2.62 | 1.92
70000 kPa, quartz crystal resonator | 6.79 | 4.22 | 2.82 | 2.08
80000 kPa, quartz crystal resonator | 7.58 | 4.64 | 3.07 | 2.25
90000 kPa, quartz crystal resonator | – | 5.06 | 3.36 | 2.46
100000 kPa, quartz crystal resonator | – | 5.55 | 3.63 | 2.65
120000 kPa, quartz crystal resonator | – | 6.67 | 4.26 | 3.09
140000 kPa, quartz crystal resonator | – | 7.67 | 4.95 | 3.54
160000 kPa, quartz crystal resonator | – | – | 5.75 | 4.06
180000 kPa, quartz crystal resonator | – | – | 6.56 | 4.64
200000 kPa, quartz crystal resonator | – | – | 7.56 | 5.34

[2]
Details | molar heat capacity at constant pressure [J/K/mol]
297.91 K | 433.79
307.79 K | 438.57
317.66 K | 443.29
327.54 K | 448.34
337.42 K | 453.83
347.29 K | 459.28
357.17 K | 464.66
367.05 K | 470.72
376.92 K | 477.82
386.8 K | 485.49
